This passage reports EC50 results from patent US11168079B2, “Alkene compounds as farnesoid x receptor modulators” (BRISTOL-MYERS SQUIBB COMPANY, priority 2017, dated 2021).

For one test, the target named is T1, human FXR (Homo sapiens, UniProt Q96RI1).
T1 sequence (Q96RI1 262-486 limits assumed): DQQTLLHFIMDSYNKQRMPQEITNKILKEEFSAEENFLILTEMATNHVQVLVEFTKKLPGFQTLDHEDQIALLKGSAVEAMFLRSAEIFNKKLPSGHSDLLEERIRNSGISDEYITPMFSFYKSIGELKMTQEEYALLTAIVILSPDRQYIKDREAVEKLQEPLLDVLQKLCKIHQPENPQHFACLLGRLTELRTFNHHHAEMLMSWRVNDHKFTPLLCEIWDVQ
The experiment in a line: transient human FXR/Gal4-luciferase reporter assay (HLE GAL-FXR). Conditions: FXR EC50 (nM), Gal4-hFXR fusion reporter, HEK293 cells; Table 1. (A reporter such as luciferase makes a cellular process visible.)
Method: A Gal4-hFXR fusion construct reporter system was used as the primary assay to characterize compound activity. A construct including 5 copies of the Gal4 promoter response element upstream of a firefly luciferase reporter cDNA was stably expressed in HEK293 cells. This reporter cell line was maintained in Dulbecco's Modified Eagle's medium (DMEM; Gibco) supplemented with 1% penicillin-streptomycin (P/S) solution, 500 μg/mL Zeocin and 10% charcoal/dextran-treated fetal bovine serum (cs-FBS) at 37° C. in a humidified 5% CO2 atmosphere. Another plasmid was constructed in which the human cytomegalovirus promoter in the pcDNA3.1 vector directs the expression of the cDNA encoding a fusion protein comprised of the DNA binding domain from the Gal4 transcription factor fused to the ligand binding domain from human FXR.
For compound testing, 100 nL of the compounds (serial dilutions in DMSO) are dispensed with an Echo acoustic dispenser (Labcyte) into the wells of a Corning/Costar clear bottom 384-well white plate. The transfected cells are harvested, counted, and diluted such that 10-25,000 cells in 25 μL are plated into each well of the 384-well compound assay plate. The compound-treated cells are incubated overnight at 37° C. in a humidified 5% CO2 atmosphere. The next morning 25 μL of Steady-Glo (Promega) are added to each well of the plate, the mixture is incubated for 15 min. with shaking, and luminescence is measured on an Envision (Perkin Elmer) plate reader.
On to `Cc1nc(C(=O)O)cc2ccc(N3CCC(/C=C/c4c(-c5ccccc5OC(F)(F)F)noc4C4CC4)CC3)cc12` [Example 119], for which the EC50 amounted to 96 nM.
With `O=C(O)c1cc(OC2CCOC2)c2cc(N3CC4C(/C=C/c5c(-c6c(Cl)cncc6Cl)noc5C5CC5)C4C3)ccc2n1` (stereo not shown) [Example 120], the concentration giving a half-maximal response (EC50) came out at 18 nM.
Compound `O=C(O)c1ccc(N2CC3C(/C=C/c4c(-c5c(Cl)cncc5Cl)noc4C4CC4)C3C2)c2ncccc12` (stereo not shown) [Example 121] showed an EC50 of 824 nM.
In the case of `COc1nc(C(=O)O)cc2ccc(N3CC4C(/C=C/c5c(-c6c(Cl)cncc6Cl)noc5C5CC5)C4C3)cc12` (stereo not shown) [Example 122], a half-maximal effect (EC50) was put at 126 nM.
On the same count and under the same terms, in the case of `O=C(O)c1cc(-c2nc(N3CC4C(/C=C/c5c(-c6c(Cl)cncc6Cl)noc5C5CC5)C4C3)no2)cc(C(F)(F)F)c1` (stereo not shown) [Example 123] it was 206 nM.
With `COc1cc(C(=O)O)nc2sc(N3CC4C(/C=C/c5c(-c6c(Cl)cncc6Cl)noc5C5CC5)C4C3)nc12` (stereo not shown) [Example 124], the EC50 came out at 284 nM.
On the same count and under the same terms, in the case of `COc1cc(C(=O)O)nc2ccc(N3CCC(/C=C/c4c(-c5ncccc5C(F)(F)F)noc4C4CC4)CC3)cc12` [Example 125] it was 14 nM; in that of `O=C(O)c1cc(OC2COC2)c2cc(N3CC4C(/C=C/c5c(-c6c(Cl)cncc6Cl)noc5C5CC5)C4C3)ccc2n1` (stereo not shown) [Example 126], 18 nM.
On to `O=C(O)c1cc(O[C@@H]2CCOC2)c2cc(N3CC4C(/C=C/c5c(-c6c(Cl)cncc6Cl)noc5C5CC5)C4C3)ccc2n1` (stereo partly shown) [Example 127], for which it took 30 nM to reach a half-maximal effect (EC50).
On the same count and under the same terms, in the case of `O=C(O)c1cc(O[C@H]2CCOC2)c2cc(N3CC4C(/C=C/c5c(-c6c(Cl)cncc6Cl)noc5C5CC5)C4C3)ccc2n1` (stereo partly shown) [Example 128] it was 27 nM; in that of `COc1ccc(COc2cc(C(=O)O)nc3ccc(N4CC5C(/C=C/c6c(-c7c(Cl)cncc7Cl)noc6C6CC6)C5C4)cc23)cc1` (stereo not shown) [Example 129], 240 nM.
The compound `O=C(O)c1cc(OC2CCC2)c2cc(N3CC4C(/C=C/c5c(-c6ccccc6C(F)(F)F)noc5C5CC5)C4C3)ccc2n1` (stereo not shown) [Example 130] came in with a concentration giving a half-maximal response (EC50) of 50 nM.
`COc1cc(C(=O)O)nc2ccc(N3CC4C(/C=C/c5c(-c6ccccc6C(F)(F)F)noc5C5CC5)C4C3)cc12` (stereo not shown) [Example 132] returned an EC50 of 16 nM.
With `O=C(O)c1cc(OC2COC2)c2cc(N3CC4C(/C=C/c5c(-c6ccccc6C(F)(F)F)noc5C5CC5)C4C3)ccc2n1` (stereo not shown) [Example 134], it took 15 nM to reach a half-maximal effect (EC50).
Regarding `COc1nc(C(=O)O)cc2ccc(N3CC4C(/C=C/c5c(-c6ccccc6C(F)(F)F)noc5C5CC5)C4C3)cc12` (stereo not shown) [Example 135], the 50% effective concentration (EC50) worked out at 416 nM.
`O=C(O)c1cc(OC2CCC2)c2cc(N3CC4C(/C=C/c5c(-c6c(Cl)cncc6Cl)noc5C5CC5)C4C3)ccc2n1` (stereo not shown) [Example 136] returned an EC50 of 20 nM.
Same read-out and setting: next, `O=C(O)c1cc(OC2COC2)cc(-c2nc(N3CC4C(/C=C/c5c(-c6c(Cl)cncc6Cl)noc5C5CC5)C4C3)no2)c1` (stereo not shown) [Example 137]: 932 nM.
The compound `O=C(O)c1cnc2ccc(N3CC4C(/C=C/c5c(-c6ccccc6C(F)(F)F)noc5C5CC5)C4C3)cc2n1` (stereo not shown) [Example 138] registered a half-maximal effective concentration (EC50) of 2470 nM.
The compound `COc1cc(C(=O)O)nc2sc(N3CC4C(/C=C/c5c(-c6ccccc6C(F)(F)F)noc5C5CC5)C4C3)nc12` (stereo not shown) [Example 139] gave a half-maximal effective concentration (EC50) of 163 nM.
The same measure, in the same setting: next, `O=C(O)c1cnc2cc(N3CC4C(/C=C/c5c(-c6ccccc6C(F)(F)F)noc5C5CC5)C4C3)ccc2n1` (stereo not shown) [Example 140]: 142 nM.
For the compound `COc1cc(C(=O)O)nc2ccc(N3CC4C(/C=C/c5c(-c6cccnc6C(F)(F)F)noc5C5CC5)C4C3)cc12` (stereo not shown) [Example 141], the response was half-maximal at 98 nM (EC50).
With `O=C(O)c1cc(OC2CCC2)c2cc(N3CC4C(/C=C/c5c(-c6cccnc6C(F)(F)F)noc5C5CC5)C4C3)ccc2n1` (stereo not shown) [Example 142], the EC50 is 54 nM.
`O=C(O)c1cc(OC2COC2)c2cc(N3CC4C(/C=C/c5c(-c6cccnc6C(F)(F)F)noc5C5CC5)C4C3)ccc2n1` (stereo not shown) [Example 143] returned a half-maximal effective concentration (EC50) of 88 nM.
As for `O=C(O)c1ccc(N2CC3C(/C=C/c4c(-c5c(Cl)cccc5Cl)noc4C4CC4)C3C2)nc1` (stereo not shown) [Example 144], the concentration for a half-maximal effect (EC50) is 424 nM.
Still for that read-out and setting: next, `O=C(O)c1cc(C(F)(F)F)c2cc(N3CC[C@@H](/C=C/c4c(-c5ccccc5C(F)(F)F)noc4C4CC4)C3)ccc2n1` [Example 145]: 419 nM.
In turn, `O=C(O)c1cc(C(F)(F)F)c2cc(N3CC[C@H](/C=C/c4c(-c5ccccc5C(F)(F)F)noc4C4CC4)C3)ccc2n1` [Example 146] gave a concentration for a half-maximal effect (EC50) of 22 nM.
As for `O=C(O)c1cc(OC2CCC2)c2cc(N3CC[C@@H](/C=C/c4c(-c5ccccc5C(F)(F)F)noc4C4CC4)C3)ccc2n1` [Example 147], a half-maximal response (EC50) required 139 nM.
On the same count and under the same terms, in the case of `O=C(O)c1cc(OC2CCC2)c2cc(N3CC[C@H](/C=C/c4c(-c5ccccc5C(F)(F)F)noc4C4CC4)C3)ccc2n1` [Example 148] it was 2 nM.
Take `CC(C)Oc1cc(C(=O)O)nc2ccc(N3CC(/C=C/c4c(-c5ccccc5C(F)(F)F)noc4C4CC4)C3)cc12` [Example 149]: a half-maximal effect (EC50) was put at 164 nM.
In turn, `O=C(O)c1cc(OC2CCC2)c2cc(N3CC(/C=C/c4c(-c5ccccc5C(F)(F)F)noc4C4CC4)C3)ccc2n1` [Example 150] displayed a 50% effective concentration (EC50) of 58 nM.
In turn, `O=C(O)c1cc(OC2COC2)c2cc(N3CC(/C=C/c4c(-c5ccccc5C(F)(F)F)noc4C4CC4)C3)ccc2n1` [Example 151] gave an EC50 of 96 nM.
Take `O=C(O)c1cc(OC2CC(F)(F)C2)c2cc(N3CC(/C=C/c4c(-c5ccccc5C(F)(F)F)noc4C4CC4)C3)ccc2n1` [Example 152]: the EC50 was 228 nM.
Take `COc1cc(C(=O)O)nc2sc(N3CC(/C=C/c4c(-c5ccccc5C(F)(F)F)noc4C4CC4)C3)nc12` [Example 153]: the midpoint of the response, the EC50, lay at 473 nM.
Same read-out and setting: in the case of `COc1cc(C(=O)O)nc2ccc(N3CC(/C=C/c4c(-c5ccccc5C(F)(F)F)noc4C4CC4)C3)cc12` [Example 154] it was 63 nM; in that of `COc1cc(C(=O)O)cc(-c2nc(N3CC4C(/C=C/c5c(-c6cccnc6C(F)(F)F)noc5C5CC5)C4C3)no2)c1` (stereo not shown) [Example 155], 784 nM.
Compound `CCOc1cc(C(=O)O)nc2ccc(N3CC4C(/C=C/c5c(-c6cccnc6C(F)(F)F)noc5C5CC5)C4C3)cc12` (stereo not shown) [Example 156] registered a 50% effective concentration (EC50) of 43 nM.
The same measure, in the same setting: next, `O=C(O)c1cc(O[C@@H]2CCOC2)c2cc(N3CC4C(/C=C/c5c(-c6cccnc6C(F)(F)F)noc5C5CC5)C4C3)ccc2n1` (stereo partly shown) [Example 157]: 165 nM; `CCOc1cc(N2CC3C(/C=C/c4c(-c5ccccc5C(F)(F)F)noc4C4CC4)C3C2)cnc1C(N)=O` (stereo not shown) [Example 158]: 555 nM; `O=C(O)c1cc(OC2CCC2)c2cc(N3CC(/C=C/c4c(-c5c(Cl)ccnc5Cl)noc4C4CC4)C3)ccc2n1` [Example 159]: 39 nM.
In turn, `O=C(O)c1cc(OC2COC2)c2cc(N3CC(/C=C/c4c(-c5c(Cl)cncc5Cl)noc4C4CC4)C3)ccc2n1` [Example 160] showed an EC50 of 65 nM.
Consider `O=C(O)c1cnc2cc(N3CC4C(/C=C/c5c(-c6c(Cl)cncc6Cl)noc5C5CC5)C4C3)ccc2n1` (stereo not shown) [Example 161], for which it took 192 nM to reach a half-maximal effect (EC50).
With `O=C(O)c1cc(C(F)(F)F)c2cc(N3CC(/C=C/c4c(-c5c(Cl)cncc5Cl)noc4C4CC4)C3)ccc2n1` [Example 162], the EC50 is 150 nM.
Turning to `CCOc1cc(N2CC3C(/C=C/c4c(-c5ccccc5C(F)(F)F)noc4C4CC4)C3C2)cnc1C(=O)O` (stereo not shown) [Example 163], the concentration giving a half-maximal response (EC50) is 424 nM.
Same read-out and setting: in the case of `COc1cc(-c2nc(N3CC4C(/C=C/c5c(-c6c(Cl)cncc6Cl)noc5C5CC5)C4C3)no2)cc(C(=O)O)n1` (stereo not shown) [Example 164] it was 297 nM; in that of `COc1cc(C(=O)O)nc2ccc(N3CC(/C=C/c4c(-c5c(Cl)cncc5Cl)noc4C4CC4)C3)cc12` [Example 166], 29 nM.
For `O=C(O)c1cnc2cc(N3CC(/C=C/c4c(-c5c(Cl)cncc5Cl)noc4C4CC4)C3)ccc2n1` [Example 167], a half-maximal effect (EC50) was put at 308 nM.
Compound `COc1c(C(=O)O)cccc1-c1nc(N2CC3C(/C=C/c4c(-c5c(Cl)cncc5Cl)noc4C4CC4)C3C2)no1` (stereo not shown) [Example 168] showed an EC50 of 1100 nM.
On the same count and under the same terms, next, `COc1cc(C(=O)O)nc2ccc(N3CC(/C=C/c4c(-c5cccnc5C(F)(F)F)noc4C4CC4)C3)cc12` [Example 169]: 223 nM; `O=C(O)c1cc(OC2CCC2)c2cc(N3CC(/C=C/c4c(-c5cccnc5C(F)(F)F)noc4C4CC4)C3)ccc2n1` [Example 170]: 50 nM; `COc1cc(C(=O)O)nc2ccc(N3CC(/C=C/c4c(-c5ccccc5C(F)(F)F)noc4C4CC4)C3)nc12` [Example 173]: 375 nM.
In the case of `O=C(O)c1cc(OC2CC2)c2cc(N3CC(/C=C/c4c(-c5cccnc5C(F)(F)F)noc4C4CC4)C3)ccc2n1` [Example 178], the EC50 was determined as 37 nM.
With `Cn1cc(C(=O)O)c(=O)c2ccc(N3CC4C(/C=C/c5c(-c6c(Cl)cncc6Cl)noc5C5CC5)C4C3)cc21` (stereo not shown) [Example 180], the response was half-maximal at 276 nM (EC50).

Still in this test, the particulars now being: HLE GAL-FXR EC50, Gal4-hFXR fusion reporter, HEK293 cells.
The compound `O=C(O)c1cccc(-c2noc(N3CC4C(/C=C/c5c(-c6c(Cl)cncc6Cl)noc5C5CC5)C4C3)n2)c1` (stereo not shown) [Example 133, (E)-3-(5-(6-(2-(5-cyclopropyl-3-(3,5-dichloropyridin-4-yl)isoxazol-4-yl)vinyl)-3-azabicyclo[3.1.0]hexan-3-yl)-1,2,4-oxadiazol-3-yl)benzoic acid] came in with an EC50 of 1290 nM.

The same test, now with this note: read-out: FXR EC50; Gal4-hFXR fusion reporter, HEK293 cells; Table 1.
As to `COc1cc(C(=O)O)cc(-c2nc(N3CC4C(/C=C/c5c(-c6c(Cl)cncc6Cl)noc5C5CC5)C4C3)no2)c1` (stereo not shown) [Example 165], the EC50 was 222 nM.
The same measure, in the same setting: next, `COCc1cc(C(=O)O)nc2ccc(N3CC(/C=C/c4c(-c5cccnc5C(F)(F)F)noc4C4CC4)C3)cc12` [Example 171]: 65 nM.

As a reminder, the EC50 is the concentration that produces a half-maximal response.
